The source of these data is patent publication USRE47739E1, “2-(pyridin-2-ylamino)-pyrido[2,3-D]pyrimidin-7-ones” (Warner-Lambert Company LLC, priority 2002, dated 2019).

The target of one data set is Cdk4/Cyclin D (Homo sapiens, UniProt P11802). The data set can be described thus: Assay for Inhibition of Cdk4/Cyclin D. The conditions noted are these: 25 μM ATP, retinoblastoma protein substrate, 25° C., 15 minutes. It is filed as biochemical. As to the method: (§1) The assays were carried out as described below.
Assay for Inhibition of Cdk4/Cyclin D
The Cdk4 enzyme assay for IC50 determination and kinetic evaluation is performed as follows. 96-well filter plates (Millipore MADVN6550) are used. […] Buffer A containing excess EDTA was used to determine the level of background ^32P in the absence of enzyme activity. All components except the ATP are added to the wells, and the plate is placed on a plate mixer for 2 minutes. The reaction is started by adding [^32P]ATP, and the plate is incubated at 25° C. for 15 minutes. The reaction is terminated by addition of 0.1 mL 20% trichloroacetic acid (TCA). The plate is kept at 4° C. for at least 1 hour to allow the substrate to precipitate. The wells are then washed five times with 0.2 mL 10% TCA, and ^32P incorporation is determined with a beta plate counter (Wallac Inc., Gaithersburg, Md.).

The target in data set [1] is FGF receptor (FGFr) tyrosine kinase (Homo sapiens, UniProt P11362). The data set is described as follows: Assay for Inhibition of FGFr. The data set is classed as biochemical. The conditions noted are these: 50 μM ATP, Poly (4:1) glutamate-tyrosine substrate, 25° C. As to the method:
as §1
Assay for Inhibition of FGFr
For FGF receptor (FGFr) tyrosine kinase assays 96-well plates (100 μL/incubation/well), and conditions are optimized to measure the incorporation of ^32P from [γ^32P]ATP into a glutamate-tyrosine co-polymer substrate. Briefly, to each well is added 82.5 μL incubation buffer B (25 mM Hepes (pH 7.0), 150 mM NaCl, 0.1% Triton X-100, 0.2 mM PMSF, 0.2 mM Na3VO4, 10 mM MnCl2) and 750 μg/mL Poly (4:1) glutamate-tyrosine followed by 2.5 μL of the test compound in buffer B and 5 μL of a 7.5 μg/μL FGFr solution to initiate the reaction. Following a 10-minute incubation at 25° C., […] [γ^32P]ATP (0.4 μCi plus 50 μM ATP) is added to each well, and samples are incubated for an additional 10 minutes at 25° C. The reaction is terminated by the addition of 100 μL 30% trichloroacetic acid (TCA) containing 20 mM sodium pyrophosphate and precipitation of material onto glass fiber mats (Wallac). […] Nonspecific activity is defined as radioactivity retained on the filters following incubation of samples with buffer alone (no enzyme). Specific enzymatic activity (enzyme plus buffer) is defined as total activity minus nonspecific activity.

A further data set has as its target Cdk2/Cyclin A (Homo sapiens, UniProt P24941). The data set can be described thus: Assay for Inhibition of Cdk2/Cyclin A. It is filed as biochemical. The conditions noted are these: 12 mM ATP (so in the source), retinoblastoma protein substrate, 25° C., 15 minutes. As to the method:
as §1
Assay for Inhibition of Cdk2/Cyclin A
Cdk2 enzyme assays for IC50 determinations and kinetic evaluation are performed as follows. 96-well filter plates (Millipore MADVN6550) are used. […] All components except the ATP are added to the wells, and the plate is placed on a plate mixer for 2 minutes. The reaction is initiated by addition of [^32P]ATP, and the plate is incubated at 25° C. for 15 minutes. The reaction is terminated by addition of 0.1 mL 20% TCA. The plate is kept at 4° C. for at least 1 hour to allow the substrate to precipitate. The wells are then washed five times with 0.2 mL 10% TCA, and ^32P incorporation is determined with a beta plate counter (Wallac Inc., Gaithersburg, Md.).

Another data set deals with neointima formation. The conditions noted are these: rats; cited from earlier work.

Counter-ions that a name gives are not always drawn. Where only a bound is given, the exact number is not on record here.

Chain of Cdk4/Cyclin D (P11802 whole entry, species assumed): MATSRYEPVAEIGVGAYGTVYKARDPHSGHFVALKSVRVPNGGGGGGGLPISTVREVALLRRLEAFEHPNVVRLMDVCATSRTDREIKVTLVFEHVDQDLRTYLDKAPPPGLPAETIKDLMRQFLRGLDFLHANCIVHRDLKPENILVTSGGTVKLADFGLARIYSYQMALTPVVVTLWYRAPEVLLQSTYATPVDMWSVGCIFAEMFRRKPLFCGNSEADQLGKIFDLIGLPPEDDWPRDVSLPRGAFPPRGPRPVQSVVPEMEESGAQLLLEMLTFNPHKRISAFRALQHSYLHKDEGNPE
Chain of Cdk4/Cyclin D (P24385 whole entry partner, species assumed): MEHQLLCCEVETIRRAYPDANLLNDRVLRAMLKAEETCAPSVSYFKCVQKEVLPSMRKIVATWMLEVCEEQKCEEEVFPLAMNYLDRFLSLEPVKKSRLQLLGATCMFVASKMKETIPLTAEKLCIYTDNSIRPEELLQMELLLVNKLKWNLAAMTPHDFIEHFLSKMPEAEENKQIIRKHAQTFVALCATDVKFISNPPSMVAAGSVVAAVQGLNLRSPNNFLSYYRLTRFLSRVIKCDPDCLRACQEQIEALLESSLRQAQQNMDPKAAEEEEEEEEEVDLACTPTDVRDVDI
Chain of FGF receptor (FGFr) tyrosine kinase (P11362 22-822): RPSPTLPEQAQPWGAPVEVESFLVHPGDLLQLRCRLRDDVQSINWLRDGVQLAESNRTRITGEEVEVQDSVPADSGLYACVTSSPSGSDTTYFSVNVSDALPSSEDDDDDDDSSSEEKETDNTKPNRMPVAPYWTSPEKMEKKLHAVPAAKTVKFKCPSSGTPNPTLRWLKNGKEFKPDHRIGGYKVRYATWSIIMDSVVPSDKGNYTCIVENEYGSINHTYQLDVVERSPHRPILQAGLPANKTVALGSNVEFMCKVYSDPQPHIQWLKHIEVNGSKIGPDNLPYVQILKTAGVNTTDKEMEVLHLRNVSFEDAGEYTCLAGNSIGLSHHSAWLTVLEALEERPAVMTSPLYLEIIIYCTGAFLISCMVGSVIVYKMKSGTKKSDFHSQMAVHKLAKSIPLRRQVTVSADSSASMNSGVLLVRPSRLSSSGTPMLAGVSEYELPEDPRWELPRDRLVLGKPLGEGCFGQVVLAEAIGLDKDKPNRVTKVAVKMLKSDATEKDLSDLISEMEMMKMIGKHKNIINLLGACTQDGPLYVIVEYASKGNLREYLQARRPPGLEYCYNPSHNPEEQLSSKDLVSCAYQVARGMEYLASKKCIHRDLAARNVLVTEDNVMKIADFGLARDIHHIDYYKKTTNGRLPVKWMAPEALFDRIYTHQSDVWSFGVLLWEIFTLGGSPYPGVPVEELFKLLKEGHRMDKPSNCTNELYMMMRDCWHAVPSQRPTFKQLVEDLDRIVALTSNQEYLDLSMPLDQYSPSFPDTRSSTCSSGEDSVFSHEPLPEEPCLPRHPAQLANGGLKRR

In the case of `Cc1c(Br)c(=O)n(C2CCCC2)c2nc(Nc3ccc(N4CCN(C)CC4)cn3)ncc12` [Example 70, 6-Bromo-8-cyclopentyl-5-methyl-2-[5-(4-methyl-piperazin-1-yl)-pyridin-2-ylamino]-8H-pyrido[2,3-d]pyrimidin-7-one], the melting point (commonly the temperature of the solid-liquid transition) is 278 to 280 °C (dec.). Moreover, the midpoint of inhibition on Cdk4/Cyclin D, the IC50, lay at 135 nM. In addition, the IC50 (as a rule, the concentration needed to halve the response being measured) in data set [1] was above 5 µM.

For `O=c1c(Cc2ccccc2)cc2cnc(Nc3ccc(N4CCNCC4)cn3)nc2n1C1CCCC1` [Example 24, 6-Benzyl-8-cyclopentyl-2-(5-piperazin-1-yl-pyridin-2-ylamino)-8H-pyrido[2,3-d]pyrimidin-7-one hydrochloride], the IC50 at Cdk4/Cyclin D was 5 nM; against Cdk2/Cyclin A it was above 5 µM; in data set [1], above 5 µM.

Regarding `O=c1c(Br)cc2cnc(Nc3ccc(N4CCNCC4)cn3)nc2n1C1CCCC1` [Example 3, 6-Bromo-8-cyclopentyl-2-(5-piperazin-1-yl-pyridin-2-ylamino)-8H-pyrido [2,3-d]pyrimidin-7-one hydrochloride], the IC50 against Cdk4/Cyclin D was determined as 16 nM; against Cdk2/Cyclin A it was 6.05 µM; in data set [1], 1.03 µM.

`COCCN(CCOC)c1ccc(Nc2ncc3c(C)c(Br)c(=O)n(C4CCCC4)c3n2)nc1` [Example 54, 2-{5-[Bis-(2-methoxy-ethyl)-amino]-pyridin-2-ylamino}-6-bromo-8-cyclopentyl-5-methyl-8H-pyrido[2,3-d]pyrimidin-7-one] returned a melting point of 94 to 95 °C. The same compound yielded an IC50 against Cdk4/Cyclin D of 1100 nM. The compound further gave an IC50 in data set [1] above 5 µM.

In the case of `O=c1ccc2cnc(Nc3ccc(N4CCNCC4)cn3)nc2n1C1CCCC1` (as salt: hydrochloride) [Example 59, 8-cyclopentyl-2-(5-piperazin-1-yl-pyridin-2-ylamino)-8H-pyrido[2,3-d]pyrimidin-7-one], the melting point lay within 213 to 215 °C.

`Nc1cccc(Nc2ncc3cc(Br)c(=O)n(C4CCCC4)c3n2)n1` [Example 65, 6-Bromo-8-cyclopentyl-2-(pyridin-2,6-yldiamino)-8H-pyrido[2,3-d]pyrimidin-7-one] registered a melting point above 300 °C. Besides, the half-maximal inhibitory concentration (IC50) against Cdk4/Cyclin D was 430 nM. At Cdk2/Cyclin A, the IC50 was 3.3 µM.

Regarding `O=c1ccc2cnc(Nc3ccccn3)nc2n1C1CCCC1` [Example 1, 8-Cyclopentyl-2-(pyridin-2-ylamino)-8H-pyrido[2,3-d]pyrimidin-7-one], the IC50 was 145 nM against Cdk4/Cyclin D, 5.01 µM against Cdk2/Cyclin A and above 5 µM in data set [1].

With `CC(=O)c1cc2cnc(Nc3ccc(N4CCNCC4)cn3)nc2n(C2CCCC2)c1=O` (as salt: hydrochloride) [Example 33, 6-Acetyl-8-cyclopentyl-2-(5-piperazin-1-yl-pyridin-2-ylamino)-8H-pyrido[2.3-d]pyrimidin-7-one hydrochloride], the melting point was above 300 °C.

With `Cc1cc2cnc(Nc3ccc(N4CCNCC4)cn3)nc2n(C2CCCC2)c1=O` [Example 20, 8-Cyclopentyl-6-methyl-2-(5-piperazin-1-yl-pyridin-2-ylamino)-8H-pyrido[2,3-d]pyrimidin-7-one hydrochloride], the IC50 on Cdk4/Cyclin D was found to be 27 nM; at Cdk2/Cyclin A it was 4.05 µM; in data set [1] it was 1.6 µM.

On to `Cc1c(I)c(=O)n(C2CCCC2)c2nc(Nc3ccc(N4CCNCC4)cn3)ncc12` [Example 50, 8-Cyclopentyl-6-iodo-5-methyl-2-(5-piperazin-1-yl-pyridin-2-ylamino)-8H-pyrido[2,3-d]pyrimidin-7-one], for which the melting point is above 240 °C. For the same compound, on Cdk4/Cyclin D, the IC50 amounted to 145 nM. At Cdk2/Cyclin A, this compound gave an IC50 above 5 µM. The compound also showed an IC50 in data set [1] above 5 µM.

For `O=c1ccc2cnc(Nc3ccc(N4CCNCC4)cn3)nc2n1C1CCCC1` [Example 59, 8-cyclopentyl-2-(5-piperazin-1-yl-pyridin-2-ylamino)-8H-pyrido[2,3-d]pyrimidin-7-one], the concentration for half-maximal inhibition (IC50) against Cdk4/Cyclin D came out at 15 nM; against Cdk2/Cyclin A, 2.5 µM; in data set [1] it was 1.52 µM.

In turn, `O=c1ccc2cnc(Nc3ccc(N4CCNCC4)cn3)nc2n1C1CC1` (as salt: hydrochloride) [Example 64, 8-cyclopropyl-2-(5-piperazin-1-yl-pyridin-2-ylamino)-8H-pyrido[2,3-d]pyrimidin-7-one] registered a melting point above 300 °C.

For `O=c1ccc2cnc(Nc3ccc(N4CCNCC4)cn3)nc2n1C1CCCCC1` (as salt: hydrochloride) [Example 61, 8-cyclohexyl-2-(5-piperazin-1-yl-pyridin-2-ylamino)-8H-pyrido[2,3-d]pyrimidin-7-one], the melting point was 228 to 230 °C.

With `COCCN(CCOC)c1ccc(Nc2ncc3c(C)c(C(C)=O)c(=O)n(C4CCCC4)c3n2)nc1` [Example 55, 6-Acetyl-2-{5-[bis-(2-methoxy-ethyl)-amino]-pyridin-2-ylamino}-8-cyclopentyl-5-methyl-8H-pyrido[2,3-d]pyrimidin-7-one], the melting point is 138 °C. This compound also showed an IC50 against Cdk4/Cyclin D of 24 nM. Moreover, the 50% inhibitory concentration (IC50) on Cdk2/Cyclin A was above 5 µM. Further, the IC50 in data set [1] was above 5 µM.

`Cc1c(Br)c(=O)n(C2CCCC2)c2nc(Nc3ccccn3)ncc12` [Example 37, 6-bromo-8-cyclopentyl-5-methyl-2-(pyridin-2-ylamino)-8H-pyrido[2,3-d]pyrimidin-7-one] came in with a melting point of 267 to 268 °C. Besides, at Cdk4/Cyclin D, the IC50 is above 5000 nM. Also, the IC50 in data set [1] was above 5 µM.

`COc1ccc(CNc2nc(N(CCO)CCO)nc3c2ncn3C(C)C)cc1` [CVT-313]: in the data set on neointima formation, the “inhibition of neointima formation” value is on record as “greater than 80%”.

Take `CCOCc1cc2cnc(Nc3ccc(N4CCOCC4)cn3)nc2n(C2CCCC2)c1=O` [Example 125, 8-Cyclopentyl-6-ethoxymethyl-2-(5-morpholin-4-yl-pyridin-2-ylamino)-8H-pyrido[2,3-d]pyrimidin-7-one]: the IC50 was 18 nM at Cdk4/Cyclin D, above 5 µM at Cdk2/Cyclin A and above 5 µM in data set [1].

Turning to “8-Cyclopentyl-6-methoxymethyl-2-(5-piperazin-1-yl-pyridin-2-ylamino)-8H-pyrido[2,3-d]pyrimidin-7-one [Example 120]”, the IC50 was determined as 13 nM against Cdk4/Cyclin D, 3.8 µM on Cdk2/Cyclin A and 2.47 µM in data set [1].
